Marks after values point to notes of the source that are not given here.
Tests used:
[1] = tested on: BaF3 EML-4-ALK-L1196M xenograft tumor; test: Pharmacodynamic experiment in vivo, subcutaneous xenograft model; parameters: species or system BALB/c nude mouse
Description: The model used in this trial was an engineered BALB/c nude mouse subcutaneous xenograft model of BaF3 EML-4-ALK-L1196M cells. Suspension culture of engineered BaF3 cells were carried out in vitro. […] Cell passage was processed twice a week. When the number of cells reached the requirement, the cells were collected, counted, diluted into a tumor cell suspension with a concentration of 1×10^7/ml with PBS, and carried to the animal room in an ice box for direct injection and inoculation. A 1 mL syringe was used to take the above-mentioned prepared tumor cell suspension with a concentration of 1×10^7/ml, and the tumor cell suspension was injected subcutaneously into the left forelimb armpit of the dorsal side of the mouse, 0.25 mL for each inoculation site. When the average volume of tumors reached about 160 mm^3, the drug was administered for each group, 15 mice in the vehicle group and 10 mice in each of the other administration groups.
Mode and frequency of administration: oral gavage administration, the volume of administration was 10 mL/kg, and the model group was given an equal volume of vehicle. It was administered 1 time a day for 14 consecutive days.
The mental, active, eating and other general conditions of the mice were observed every day, and the body weight was measured 3 times a week, and the short diameter (a) and long diameter (b) of the tumor of each mouse were measured with vernier calipers 3 times a week, and the tumor volume was calculated according to the formula (a^2×b)/2. The relative tumor volume (RTV) was calculated from the measured calculated tumor volume, RTV=Vt/V0. Wherein V0 was the tumor volume at randomization (i.e., d0) and Vt was the tumor volume at each measurement (i.e., dn). The relative tumor proliferation rate of anti-tumor activity evaluation index was calculated according to the following formula: relative tumor proliferation rate T/C (%): […]
(Note: TRTV: RTV in the treatment group; CRTV: RTV in the model control group. According to the evaluation criteria for efficacy in the “Technical Guidelines for Non-clinical Research of Cytotoxic Antitumor Drugs” issued by the National Medical Products Administration of China, T/C %≤40% is effective).

[2] = Comparative experiment of hygroscopicity (Chinese Pharmacopoeia 2020); assay type: physicochemical; settings: dihydrate
Source text: The description of hygroscopic characteristics and the definition of hygroscopic weight gain are as follows: • Deliquescence: absorbs sufficient amount of water to form a liquid; • Very hygroscopic: the weight gain by hygroscopy is not less than 15%; • Hygroscopic: the weight gain by hygroscopy is less than 15% but not less than 2%; • Slightly hygroscopic: the weight gain by hygroscopy is less than 2% but not less than 0.2%; and
Not or almost not hygroscopic: the weight gain by hygroscopy is less than 0.2% from hygroscopicity.

Solubility test = assay type: physicochemical; settings: Solution with pH = 6.8, 25° C.±2° C., dihydrate
[3] = Variable temperature XRPD of crystal form 1; assay type: physicochemical
Description: The crystalline form 1 was tested on a hot-stage XRPD detection instrument to test the XRPD patterns under different temperature conditions, as shown in FIG. 8.

[4] = Vacuum drying stability test; assay type: physicochemical
[5] = Stability test 2: different temperature and humidity conditions, XRPD; assay type: physicochemical
[6] = Stability test 3: long-term and accelerated conditions; assay type: physicochemical
[7] = High temperature and illumination stability test of crystal forms 1-3; assay type: physicochemical
Source text: The stabilities of crystal form 2 and crystal form 3 under high temperature, illumination and long-term conditions were investigated.

[8] = as above; assay type: physicochemical; settings: Illumination (illuminance: 5000Lx), Day 0 (Table 18-1)
[9] = 30 mg/kg oral gavage 1 time a day, Day 3
[10] = 30 mg/kg oral gavage 1 time a day, Day 5
[11] = 30 mg/kg oral gavage 1 time a day, Day 7
[12] = 30 mg/kg oral gavage 1 time a day, Day 10
[13] = 30 mg/kg oral gavage 1 time a day, Day 12
[14] = 30 mg/kg oral gavage 1 time a day, Day 14
[15] = 30 mg/kg oral gavage once a day, D14
[16] = 40 mg/kg oral gavage 1 time a day, Day 3
[17] = 40 mg/kg oral gavage 1 time a day, Day 5
[18] = 40 mg/kg oral gavage 1 time a day, Day 7
[19] = 40 mg/kg oral gavage 1 time a day, Day 10
[20] = 40 mg/kg oral gavage 1 time a day, Day 12
[21] = 40 mg/kg oral gavage 1 time a day, Day 14
[22] = 40 mg/kg oral gavage once a day, D14
[23] = 6 months under long-term and accelerated conditions
[24] = High temperature (50° C.), Day 10, dihydrate
[25] = High temperature (50° C.), Day 30, dihydrate
[26] = Illumination (illuminance: 5000Lx), Day 10, dihydrate
[27] = Illumination (illuminance: 5000Lx), Day 30, dihydrate

## COc1cc(N2CCC(N3CCN(C)CC3)CC2)c(C)cc1Nc1ncc(Br)c(Nc2ccc(C)cc2P(C)(C)=O)n1 [Crystal form 1, (2-((5-bromo-2-((2-methoxy-5-methyl-4-(4-(4-methylpiperazin-1-yl)piperidin-1-yl)phenyl)amino)pyrimidin-4-yl)amino)-5-methylphenyl)dimethylphosphorus oxide dihydrate]
[1]; 30 mg/kg oral gavage 1 time a day, Day 0
  Tumor volume: 160 mm^3
[1]; [9]
  Relative tumor proliferation rate T/C: 28.53▴▴ %
  Tumor volume: 102 mm^3
[1]; [10]
  Relative tumor proliferation rate T/C: 16.41▴▴ %
  Tumor volume: 89 mm^3
[1]; [11]
  Relative tumor proliferation rate T/C: 8.23▴▴ %
  Tumor volume: 75 mm^3
[1]; [12]
  Relative tumor proliferation rate T/C: 6.61▴▴ %
  Tumor volume: 91 mm^3
[1]; [13]
  Relative tumor proliferation rate T/C: 6.34▴▴ %
  Tumor volume: 109 mm^3
[1]; [14]
  Relative tumor proliferation rate T/C: 4.85▴▴ %
  Tumor volume: 101 mm^3
[1]; [15]
  Tumor volume: 101 mm^3
  relative tumor proliferation rate T/C %: 4.85%
[1]; 40 mg/kg oral gavage 1 time a day, Day 0
  Tumor volume: 159 mm^3
[1]; [16]
  Relative tumor proliferation rate T/C: 23.88▴▴ %
  Tumor volume: 83 mm^3
[1]; [17]
  Relative tumor proliferation rate T/C: 10.09▴▴ %
  Tumor volume: 52 mm^3
[1]; [18]
  Relative tumor proliferation rate T/C: 5.93▴▴ %
  Tumor volume: 49 mm^3
[1]; [19]
  Relative tumor proliferation rate T/C: 4.45▴▴ %
  Tumor volume: 60 mm^3
[1]; [20]
  Relative tumor proliferation rate T/C: 3.28▴▴ %
  Tumor volume: 55 mm^3
[1]; [21]
  Relative tumor proliferation rate T/C: 2.34▴▴ %
  Tumor volume: 49 mm^3
[1]; [22]
  Tumor volume: 49 mm^3
  relative tumor proliferation rate T/C %: 2.34%
[1]; oral gavage once a day for 14 days, crystal form 1 30 and 40 mg/kg, compound 1 of WO2021073498A1 30.2 and 40.2 mg/kg
  effect on the growth of BaF3 EML-4-ALK-L1196M xenograft tumor: significantly inhibit the growth
[2]; class by weight gain after 24 h
  Hygroscopicity: Not or almost not hygroscopic (the weight gain by hygroscopy is less than 0.2% from hygroscopicity)
[2]; hygroscopicity test, 24 h
  Weight gain % after 24 h: 0.16%
Solubility test
  Solubility for 24 h: 3.26 mg/mL
[3]; 50° C.
  crystal form on hot-stage XRPD: remained unchanged
[3]; 80° C. and 120° C.
  crystal form on hot-stage XRPD: lost two moles of crystal water
[4]; vacuum dried at 35° C.
  crystal form after vacuum drying: had not been transformed
[4]; vacuum drying at 35° C. for 24 h
  moisture content after vacuum drying: 5.26%
[5]; 25° C.-60% RH
  Analysis of result of Day 4 (XRPD): Crystal form 1
  Analysis of result of Day 6 (XRPD): Crystal form 1
  Analysis of result of Day 11 (XRPD): Crystal form 1
[5]; 40° C.-75% RH
  Analysis of result of Day 4 (XRPD): Crystal form 1
  Analysis of result of Day 6 (XRPD): Crystal form 1
  Analysis of result of Day 11 (XRPD): Crystal form 1
[5]; RT-12% RH
  Analysis of result of Day 4 (XRPD): Crystal form 1
  Analysis of result of Day 6 (XRPD): Crystal form 1
  Analysis of result of Day 11 (XRPD): Crystal form 1
[5]; RT-58% RH
  Analysis of result of Day 4 (XRPD): Crystal form 1
  Analysis of result of Day 6 (XRPD): Crystal form 1
  Analysis of result of Day 11 (XRPD): Crystal form 1
[5]; RT-97% RH
  Analysis of result of Day 4 (XRPD): Crystal form 1
  Analysis of result of Day 6 (XRPD): Crystal form 1
  Analysis of result of Day 11 (XRPD): Crystal form 1
[6]; [23]
  maximum single impurity: ≤ 0.07%
  total impurities after 6 months of placement compared with Day 0: had not increased
[6]; Acceleration (40° C. ± 2° C., 75% RH ± 10% RH), Day 0
  Traits: off-white
[6]; Acceleration (40° C. ± 2° C., 75% RH ± 10% RH), Month 6
  Traits: off-white
[6]; Acceleration (40° C. ± 2° C., 75% RH ± 10% RH, exposed to air and away from light), Day 0
  Crystal form (XRPD): form 1
[6]; Acceleration (40° C. ± 2° C., 75% RH ± 10% RH, exposed to air and away from light), Day 10
  Crystal form (XRPD): form 1
[6]; Acceleration (40° C. ± 2° C., 75% RH ± 10% RH, exposed to air and away from light), Month 6
  Crystal form (XRPD): form 1
[6]; Long-term (25° C. ± 2° C., 65% RH ± 10% RH), Day 0, dihydrate
  Traits: off-white
[6]; Long-term (25° C. ± 2° C., 65% RH ± 10% RH), Month 6
  Traits: off-white
[6]; Long-term (25° C. ± 2° C., 65% RH ± 10% RH, exposed to air and away from light), Day 0
  Crystal form (XRPD): form 1
[6]; Long-term (25° C. ± 2° C., 65% RH ± 10% RH, exposed to air and away from light), Day 10
  Crystal form (XRPD): form 1
[6]; Long-term (25° C. ± 2° C., 65% RH ± 10% RH, exposed to air and away from light), Month 6
  Crystal form (XRPD): form 1
[7]; Day 0, dihydrate
  Traits: off-white
  purity: purity: 99.66%
  total impurities: impurities: 0.34%
[7]; Day 0, reporting limit per ICHQ3B
  the number of impurities above the reporting limit: limit is 4 total
[7]; [24]
  Traits: off-white
  purity: purity: 99.65%;
  the number of impurities above the reporting limit: limit is 5; total
  total impurities: impurities: 0.35%
[7]; [25]
  Traits: off-white
  purity: purity: 99.53%;
  the number of impurities above the reporting limit: limit is 6; total
  total impurities: impurities: 0.47%
[7]; Illumination (illuminance: 5000Lx), Day 10 (Table 18-1), dihydrate
  Traits: off-white
[7]; [26]
  Traits: off-white
  purity: purity: 99.65%;
  the number of impurities above the reporting limit: limit is 5; total
  total impurities: impurities: 0.35%
[7]; [27]
  Traits: off-white
  purity: purity: 99.60%;
  the number of impurities above the reporting limit: limit is 6; total
  total impurities: impurities: 0.40%
[8]
  Traits: off-white
